Patent US20170280728A1, “ANTIMICROBIAL COMPOSITIONS AND METHODS OF THEIR USE” (CMS TECHNOLOGY, INC.., priority 2014, published 2017)

Key:
[1] = tested on: General Bacteria (bacterial bird rinse); assay: General Bacteria Assay (Vivione RAPID-B Total Plate Count); format: cell-based
[2] = tested on: Salmonella enterica serovar Anatum (ATCC #9270); assay: Salmonella Assay (liquid sanitizer exposure, log reduction); format: cell-based

| SMILES | Average Live ([1]; 5 ppm copper, pH at inoculation 5.68, Baseline 1562) | Average Live ([1]; 50 ppm copper, pH at inoculation 4.71, Baseline 1562) | activity against bacteria (in words) ([1]; at 5 ppm and 50 ppm concentrations) | Treated Sample Reduction ([2]; 0 ppm chlorine, 10 ppm copper, Solution pH 6.0, Control Sample Baseline 7.02 log, n = 3) | antimicrobial effect (in words) ([2]; at lower ppm) | Average Live ([1]; pH at inoculation 2.43, Baseline 408) |
| --- | --- | --- | --- | --- | --- | --- |
| O.O.O.O.O.O=S(=O)([O-])[O-].[Cu+2] [Copper, Copper (II) sulfate pentahydrate] | 1633 | 1666 | negligible activity | 3.83 log | limited antimicrobial effect |  |
| O=C(O)CC(O)(CC(=O)O)C(=O)O [citric acid @ 0.25%, citric acid] |  |  |  |  |  | 75 |
